{"source": "patent US20240108684A1", "about": "“DOSING REGIMENS FOR TREATMENT OF FUNGAL INFECTIONS” (priority 2016, published 2024)", "key": {"[1]": {"test": "Single ascending dose IV study in healthy adult subjects (safety, PK)", "format": "in vivo, human", "conditions": "for AUC(0-t): read-out: AUC0-168; for concentration at 144 h: read-out: C144", "protocol": "In a first study, CD101 was administered by IV injection to healthy adult subjects. In this study, subjects in 4 cohorts of 8 subjects (6 active, 2 placebo) each were randomized to receive single IV doses of CD101 or placebo (normal saline) infused over 60 (±5) minutes. Dose levels of CD101 assessed follow an ascending single-dose regimen (50, 100, 200, or 400 mg).\nPharmacokinetics were first determined by analyzing plasma and urine samples for concentration of CD101 obtained from subjects who received CD101 in each cohort at various time points after administration of the single dose of the study drug."}, "[2]": {"test": "Multiple ascending dose IV study in healthy adult subjects (safety, PK)", "format": "in vivo, human", "conditions": "for Accumulation Ratio AUC0-168 / Accumulation Ratio Cmax: last/first dose; for Cmax / AUC(0-t): human, plasma, intravenous; for AUC(0-t): read-out: AUC0-168", "protocol": "A second study of CD101 administered by IV injection to healthy adult subjects was also performed. In this study, subjects in 3 cohorts of 8 subjects (6 active, 2 placebo) each were randomized to receive multiple IV doses of CD101 or placebo (normal saline) infused over 60 (±5) minutes. Dose levels of CD101 assessed follow an ascending multiple-dose regimen (100 mg×2 doses, 200 mg×2 doses, or 400 mg×3 doses).\nPharmacokinetics were determined by analyzing plasma and urine samples for concentration of CD101 obtained from subjects who received CD101 in each cohort at various time points after administration of CD101."}, "[3]": {"test": "Pharmacokinetic study, single IP dose", "format": "in vivo, ICR mice", "conditions": "1 to 16 mg/kg IP", "protocol": "Pharmacokinetic Study. Healthy female ICR mice were given a single dose of CD101 via intraperitoneal (IP) injection. The following doses, at three mice per dose, were studied: 1, 4, and 16 mg/kg."}, "C. auris isolates": {"system": "C. auris isolates", "test": "Candida auris antifungal susceptibility testing (AFST), CLSI M27-A3", "format": "cell-based"}, "[4]": {"system": "azole-resistant C. albicans R357 strain", "test": "MIC and CLSI susceptibility, azole-resistant C. albicans R357", "format": "cell-based, Candida albicans", "conditions": "Candida albicans"}, "[5]": {"conditions": "human, plasma, 50 mg 1-hour IV infusion"}, "[6]": {"conditions": "human, plasma, 100 mg 1-hour IV infusion"}, "[7]": {"conditions": "human, plasma, 200 mg 1-hour IV infusion"}, "[8]": {"conditions": "human, plasma, 400 mg 1-hour IV infusion"}, "[9]": {"conditions": "single IV 50, 100, 200 or 400 mg"}, "[10]": {"conditions": "100 mg x2, 200 mg x2 or 400 mg x3 doses IV"}}, "note": "Where two headings read alike, the source gives them in different places. *1 amine or outer side, *2 acyl side, *3 side chain or, on linkers, in order; H or OH if unused. Where a SMILES comes first, the peptide text is derived from it. Bridges are numbered along the chain shown (N, C = ends). [ ]: non-standard residue; d: D form. The star is where a group is joined. Orn(4R-OH,5R-OCH2CH2NMe3+) = C[N+](C)(C)CCO[C@@H](N[*:3])[C@H](O)C[C@H](N[*:1])C(=O)[*:2]; pTerphenylCO(4''-OnC5H11) = CCCCCOc1ccc(-c2ccc(-c3ccc(C(=O)*)cc3)cc2)cc1; hTyr(3S-OH,4S-OH) = N[C@H](C(=O)O)[C@H](O)[C@@H](O)c1ccc(O)cc1; Pro(3S-OH,4S-Me) = C[C@H]1CN[C@H](C(=O)O)[C@H]1O; Hyp = O=C(O)[C@@H]1C[C@@H](O)CN1"}
{"compound": "CCCCCOc1ccc(-c2ccc(-c3ccc(C(=O)N[C@H]4C[C@@H](O)[C@@H](OCC[N+](C)(C)C)NC(=O)[C@@H]5[C@@H](O)[C@@H](C)CN5C(=O)[C@H]([C@@H](C)O)NC(=O)[C@H]([C@H](O)[C@@H](O)c5ccc(O)cc5)NC(=O)[C@@H]5C[C@@H](O)CN5C(=O)[C@H]([C@@H](C)O)NC4=O)cc3)cc2)cc1", "note": "[CD101] ({pTerphenylCO(4''-OnC5H11)}-[Orn(4R-OH,5R-OCH2CH2NMe3+)]T[Hyp][hTyr(3S-OH,4S-OH)]T[Pro(3S-OH,4S-Me)]; lactam 1-C)", "values": [{"measurement": "Cmax", "setting": "[1]; 400 mg 1-hour IV infusion", "value": 22700, "unit": "ng/mL"}, {"measurement": "Dose proportionality", "setting": "[1]; 50-400 mg single IV", "value": "AUC and Cmax increased in a dose proportional manner"}, {"measurement": "Fraction of dose excreted in urine", "setting": "[1]; all dose levels", "value": "< 1", "unit": "%"}, {"measurement": "half-life", "setting": "[1]; human, plasma, intravenous, incorporating data from later collection times, read-out: terminal t1/2", "value": "127 to 146", "unit": "h"}, {"measurement": "half-life", "setting": "[1]; human, plasma, intravenous, through the first week of plasma collection, read-out: t1/2 (converted)", "value": "> 80", "unit": "h"}, {"measurement": "Vd", "setting": "[1]; human, plasma, intravenous, 50-400 mg, read-out: Volume of distribution (Vz and Vss)", "value": "33 to 48", "unit": "L"}, {"measurement": "clearance", "setting": "[1]; human, plasma, intravenous, across the CD101 doses 50-400 mg, read-out: Total body clearance", "value": "~4", "unit": "mL/min"}, {"measurement": "Tmax", "setting": "[1]; human, plasma, intravenous, after start of 1-hour infusion, all doses", "value": "~1", "unit": "h"}, {"measurement": "half-life", "setting": "[1]; human, plasma, iv, 50 mg, 50 mg 1-hour IV infusion, read-out: t1/2 (converted)", "value": 86, "unit": "h"}, {"measurement": "half-life", "setting": "[1]; human, plasma, iv, 100 mg, 100 mg 1-hour IV infusion, read-out: t1/2 (converted)", "value": 92, "unit": "h"}, {"measurement": "half-life", "setting": "[1]; human, plasma, iv, 200 mg, 200 mg 1-hour IV infusion, read-out: t1/2 (converted)", "value": 91, "unit": "h"}, {"measurement": "half-life", "setting": "[1]; human, plasma, iv, 400 mg, 400 mg 1-hour IV infusion, read-out: t1/2 (converted)", "value": 84, "unit": "h"}, {"measurement": "AUC(0-t)", "setting": "[1]; [5]", "value": 145, "unit": "µg·h/mL"}, {"measurement": "concentration at 144 h", "setting": "[1]; [5]", "value": 481, "unit": "ng/mL"}, {"measurement": "Cmax", "setting": "[1]; human, plasma, 50 mg 1-hour IV infusion, read-out: Cmax", "value": 2760, "unit": "ng/mL"}, {"measurement": "AUC(0-t)", "setting": "[1]; [6]", "value": 254, "unit": "µg·h/mL"}, {"measurement": "concentration at 144 h", "setting": "[1]; [6]", "value": 854, "unit": "ng/mL"}, {"measurement": "Cmax", "setting": "[1]; human, plasma, 100 mg 1-hour IV infusion, read-out: Cmax", "value": 4840, "unit": "ng/mL"}, {"measurement": "AUC(0-t)", "setting": "[1]; [7]", "value": 592, "unit": "µg·h/mL"}, {"measurement": "concentration at 144 h", "setting": "[1]; [7]", "value": 2010, "unit": "ng/mL"}, {"measurement": "Cmax", "setting": "[1]; human, plasma, 200 mg 1-hour IV infusion, read-out: Cmax", "value": 10900, "unit": "ng/mL"}, {"measurement": "AUC(0-t)", "setting": "[1]; [8]", "value": 1160, "unit": "µg·h/mL"}, {"measurement": "concentration at 144 h", "setting": "[1]; [8]", "value": 3830, "unit": "ng/mL"}, {"measurement": "Drug-related AEs from laboratory abnormalities", "setting": "[1]; [9]", "value": "no drug-related AEs resulting from clinically significant hematology or clinical chemistry laboratory abnormalities at any dose"}, {"measurement": "ECG, vital signs, physical exam", "setting": "[1]; [9]", "value": "no safety issues related to electrocardiograms (ECGs), vital signs, or physical exam findings"}, {"measurement": "Serious and severe adverse events", "setting": "[1]; [9]", "value": "no serious adverse events (SAEs), severe adverse events (AEs), or dose-response relationships for overall AEs"}, {"measurement": "Severity and resolution of AEs", "setting": "[1]; [9]", "value": "majority of AEs were mild, and all AEs completely resolved by the end of the study"}, {"measurement": "Safety and tolerability", "setting": "[1]; single dose up to 400 mg", "value": "safe and well tolerated"}, {"measurement": "Accumulation Ratio AUC0-168", "setting": "[2]; 100 mg (Day 1/Day 8)", "value": 1.30}, {"measurement": "Accumulation Ratio Cmax", "setting": "[2]; 100 mg (Day 1/Day 8)", "value": 1.14}, {"measurement": "Drug-related AEs from laboratory abnormalities", "setting": "[2]; [10]", "value": "no drug-related AEs resulting from clinically significant hematology or clinical chemistry laboratory abnormalities at any dose"}, {"measurement": "ECG, vital signs, physical exam", "setting": "[2]; [10]", "value": "no safety issues related to ECGs, vital signs, or physical exam findings"}, {"measurement": "Serious and severe adverse events", "setting": "[2]; [10]", "value": "no SAEs or severe AEs"}, {"measurement": "Severity and resolution of AEs", "setting": "[2]; [10]", "value": "majority of AEs were mild, and all related AEs completely resolved by the end of the study"}, {"measurement": "Accumulation Ratio AUC0-168", "setting": "[2]; 200 mg (Day 1/Day 8)", "value": 1.43}, {"measurement": "Accumulation Ratio Cmax", "setting": "[2]; 200 mg (Day 1/Day 8)", "value": 1.17}, {"measurement": "Accumulation Ratio AUC0-168", "setting": "[2]; 400 mg (Day 1/Day 8/Day 15)", "value": 1.55}, {"measurement": "Accumulation Ratio Cmax", "setting": "[2]; 400 mg (Day 1/Day 8/Day 15)", "value": 1.34}, {"measurement": "Cmax", "setting": "[2]; 100 mg, 100 mg weekly, Day 1", "value": 5670, "unit": "ng/mL"}, {"measurement": "AUC(0-t)", "setting": "[2]; 100 mg, 100 mg weekly, Day 1", "value": 299, "unit": "µg·h/mL"}, {"measurement": "Cmax", "setting": "[2]; 100 mg, 100 mg weekly, Day 8", "value": 6490, "unit": "ng/mL"}, {"measurement": "AUC(0-t)", "setting": "[2]; 100 mg, 100 mg weekly, Day 8", "value": 390, "unit": "µg·h/mL"}, {"measurement": "Cmax", "setting": "[2]; 200 mg, 200 mg weekly, Day 1", "value": 10600, "unit": "ng/mL"}, {"measurement": "AUC(0-t)", "setting": "[2]; 200 mg, 200 mg weekly, Day 1", "value": 570, "unit": "µg·h/mL"}, {"measurement": "Cmax", "setting": "[2]; 200 mg, 200 mg weekly, Day 8", "value": 12400, "unit": "ng/mL"}, {"measurement": "AUC(0-t)", "setting": "[2]; 200 mg, 200 mg weekly, Day 8", "value": 813, "unit": "µg·h/mL"}, {"measurement": "Cmax", "setting": "[2]; 400 mg, 400 mg weekly, Day 1", "value": 22700, "unit": "ng/mL"}, {"measurement": "AUC(0-t)", "setting": "[2]; 400 mg, 400 mg weekly, Day 1", "value": 1190, "unit": "µg·h/mL"}, {"measurement": "Cmax", "setting": "[2]; 400 mg, 400 mg weekly, Day 15", "value": 30500, "unit": "ng/mL"}, {"measurement": "AUC(0-t)", "setting": "[2]; 400 mg, 400 mg weekly, Day 15", "value": 1840, "unit": "µg·h/mL"}, {"measurement": "Safety and tolerability", "setting": "[2]; multiple doses up to 400 mg", "value": "safe and well tolerated"}, {"measurement": "Infusion reactions", "setting": "[2]; primarily 400 mg cohort, most common with third dose", "value": "Four subjects in the CD101 group experienced mild, transient infusion reactions"}, {"measurement": "Linearity of PK", "setting": "[3]", "value": "linear PK"}, {"measurement": "Activity in comparison", "setting": "C. auris isolates; 38 C. auris isolates", "value": "activity similar to MICA"}, {"measurement": "Breakthrough at 48 h", "setting": "C. auris isolates; C. auris strains", "value": "not with CD101"}, {"measurement": "Number of resistant C. auris isolates", "setting": "C. auris isolates; of 38 isolates", "value": 4}, {"measurement": "MIC", "setting": "[4]", "value": 0.125, "unit": "µg/mL"}]}
